Laboratory results published in ChEMBL document CHEMBL1201862, “PubChem BioAssay data set” (2004).
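These data come from cells grown in 96-well plates and exposed to compound for 48 hours at five concentrations. The concentration for 50% growth inhibition is given as GI50.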 The source made the active and inactive calls. Rule as the data show it: active = GI50 up to about 1.1 µM and inactive = higher.

Key:
Experiment in all cases: DTP human tumour cell line panel, 48 h
A549 = system: A549
ACHN = system: ACHN
BT-549 = system: BT-549
EKVX = system: EKVX
HCT-116 = system: HCT-116
HOP-92 = system: HOP-92
HT-29 = system: HT-29
MCF7 = system: MCF7
MDA-N = system: MDA-N
MOLT-4 = system: MOLT-4
Malme-3M = system: Malme-3M
NCI-H23 = system: NCI-H23
OVCAR-5 = system: OVCAR-5
OVCAR-8 = system: OVCAR-8
RPMI-8226 = system: RPMI-8226
RXF 393 = system: RXF 393
SF-295 = system: SF-295
SNB-75 = system: SNB-75
SR = system: SR
SW-620 = system: SW-620

| SMILES | GI50 (A549) | GI50 (ACHN) | GI50 (BT-549) | GI50 (EKVX) | GI50 (HCT-116) | GI50 (HOP-92) | GI50 (HT-29) | GI50 (MCF7) | GI50 (MDA-N) | GI50 (MOLT-4) | GI50 (Malme-3M) | GI50 (NCI-H23) | GI50 (OVCAR-5) | GI50 (OVCAR-8) | GI50 (RPMI-8226) | GI50 (RXF 393) | GI50 (SF-295) | GI50 (SNB-75) | GI50 (SR) | GI50 (SW-620) |
| --- | --- | --- | --- | --- | --- | --- | --- | --- | --- | --- | --- | --- | --- | --- | --- | --- | --- | --- | --- | --- |
| CCOC(=O)C(C(=O)OCC)=C1NC2(c3ccccc3Nc3ccc(C)cc32)C(C#N)S1 (stereo not given) | 3.01 µM (inactive) | 3.47 µM (inactive) | 14 µM (inactive) | 8.83 µM (inactive) | 5.58 µM (inactive) | 4.26 µM (inactive) | 3.56 µM (inactive) | 3.05 µM (inactive) | 10.6 µM (inactive) | 2.4 µM (inactive) | 15 µM (inactive) | 3.56 µM (inactive) | 11.3 µM (inactive) | 8.61 µM (inactive) | 2.32 µM (inactive) | 6.68 µM (inactive) | 9.59 µM (inactive) | 8.55 µM (inactive) | 2.44 µM (inactive) | 6.59 µM (inactive) |
| COc1cccc(C2c3cc4c(cc3OC(Nc3ccccc3)C2C)OCO4)c1O (stereo not given) | 4.95 µM (inactive) | 10.9 µM (inactive) | 10.6 µM (inactive) | 11.1 µM (inactive) | 7.6 µM (inactive) | 2.48 µM (inactive) | 5.74 µM (inactive) | 6.68 µM (inactive) | 2.42 µM (inactive) | 3.3 µM (inactive) | 7.24 µM (inactive) | 8.26 µM (inactive) | 30.1 µM (inactive) | 12.9 µM (inactive) | 6.43 µM (inactive) | 5.05 µM (inactive) | 5.25 µM (inactive) | 5.6 µM (inactive) | 3.66 µM (inactive) | 4.88 µM (inactive) |
| Cc1ccc(/N=C2\SC(=S)N(CCC[N+](C)(C)C)\C2=N/c2ccc(C)cc2)cc1 | 15.6 µM (inactive) | 13.2 µM (inactive) | 4.22 µM (inactive) | 17 µM (inactive) | 11 µM (inactive) | 14.2 µM (inactive) | 14.8 µM (inactive) | 21.6 µM (inactive) | 12.8 µM (inactive) | 10.1 µM (inactive) | 18.1 µM (inactive) | 14.5 µM (inactive) | 14.5 µM (inactive) | 15.4 µM (inactive) | 6.01 µM (inactive) | 2.49 µM (inactive) |  | 2.94 µM (inactive) | 7.03 µM (inactive) | 20.7 µM (inactive) |
| NC(CSc1nc2ccccn2c1[N+](=O)[O-])C(=O)O (stereo not given) | > 100 µM (inactive) | > 100 µM (inactive) | > 100 µM (inactive) | > 100 µM (inactive) | > 100 µM (inactive) | > 100 µM (inactive) | > 100 µM (inactive) | > 100 µM (inactive) | > 100 µM (inactive) |  | > 100 µM (inactive) | > 100 µM (inactive) | > 100 µM (inactive) | > 100 µM (inactive) | > 100 µM (inactive) | > 100 µM (inactive) | > 100 µM (inactive) | > 100 µM (inactive) | 61.1 µM (inactive) | > 100 µM (inactive) |
| CCC(C)SC1SCC2C(=O)N(C)C3(CC3C)C(=O)OCC(NC(=O)c3nc4ccccc4cc3O)C(=O)NC(C)C(=O)N(C)C1C(=O)N(C)C1(CC1C)C(=O)OCC(NC(=O)c1nc3ccccc3cc1O)C(=O)NC(C)C(=O)N2C (stereo not given) | 0.00015 µM (active) |  | 4.35e-05 µM (active) | 0.00038 µM (active) |  | 5.87e-05 µM (active) |  | 1.2e-05 µM (active) | 4.71e-05 µM (active) | 0.000128 µM (active) | 4.12e-05 µM (active) | 3.25e-05 µM (active) | 0.00018 µM (active) | 9.1e-05 µM (active) | 4.15e-05 µM (active) | 4.76e-05 µM (active) | 9.91e-05 µM (active) | 2.93e-05 µM (active) | 2.79e-05 µM (active) | 4.78e-05 µM (active) |
